From patent publication US20050288359A1, “Agents and methods for the treatment of disorders associated with oxidative stress” (Monash University, priority 2002, published 2005)
Like-named read-outs stand apart in the source and are kept apart here.

Assays:
[1] = system: neonatal mouse fibroblasts; experiment: Oxidant stress-induced cell death of fibroblasts (LDH release); type: cell-based
Method: FIG. 2 is a plot of the oxidant stress-induced cell death of neonatal mouse fibroblasts exposed to paraquat. Cells (5×10^3 per well) were treated overnight with freshly prepared paraquat or peroxynitrite. Culture medium from wells was assayed for lactate dehydrogenase (LDH) release as a marker of cytotoxicity. […] Values represent means±SEMs of triplicate wells, *P<0.05 difference from untreated cells. The x-axis represents concentration of Paraquat and Peroxynitrite in μM.
(§1) We developed two cell culture systems that can be used to screen drugs that prevent cell death induced by oxidant stress (FIG. 3, Model A) and excitotoxicity (FIG. 4, Model B). In model A, we utilize cultured fibroblasts that are exposed to paraquat that induces significant death at 10 μM (see FIG. 3). In model B we utilize the NSC-34 motor neuron cell line that can be induced to degenerate via the glutamate excitotixic pathway using the specific agonist fluorowillardine or FW (see FIG. 4).

[2] = In vitro antioxidant assay: oxidation of linoleic acid to conjugated diene hydroperoxide, free radical initiator AAPH, absorbance at 234 nm; type: biochemical
Text: Lipid oxidation can usually be prevented by the addition free radical scavengers (FRS), more commonly known as antioxidants. Their role is to turn reactive and harmful molecules such as hydroxy, nitroxy and superoxide radicals into innocuous molecules that can be passed or converted by biological processes. One of the main pathways that lead to apoptosis in cells is oxidative stress. This event is a product of the action of these harmful radicals on the cell walls and membranes, leading to their breakdown. In terms of the antioxidant evaluation (Scheme 1), […] was utilised as a free radical initiator […], and the efficiency was calculated based on the formation of a conjugated diene hydroperoxide generated through the oxidation of linoleic acid in the presence and absence of a free radical scavenger. The conjugated diene hydroperoxide mimics the products of cellular oxidative stress imposed on the cell wall. The antioxidant can act at any stage of the reaction to stop or slow down the formation of the conjugated diene by reacting with the appropriate radicals (Scheme 1).
A convenient test to determine the efficiency of antioxidants in aqueous systems was setup using 2,2′-azobis(2-amidinopropane).2HCl ([…]) as a free radical initiator (Scheme 1). The production of conjugated diene hydroperoxide (LOOH) generated through the oxidation of linoleic acid in an aqueous system at 37° C. is monitored at 234 nm for 15 minutes using a Cary 100 UV-Vis spectrophotometer.
The efficiency is determined according to a standard, that is the generation of free radicals in the absence of an antioxidant. Efficiency is then calculated using the following equation: Efficiency (%)=1−[K2/K1]×100 Where: • K1=rate of oxidation of standard (no antioxidant)=[difference in absorbance]/[time (sec)] • K2=rate of oxidation with antioxidant=[difference in absorbance]/[time (sec)]
Prior to testing the efficiency of the compounds of the present invention, a number of well known antioxidants including vitamin E and ascorbic acid were tested. Each of the tests for vitamin E and ascorbic acid gave similar results to those presented in the literature. A number of other variables were tested including the amounts of antioxidant, substrate (linoleic acid) and initiator (AAPH). The optimal volumes are shown below: • 2.78 ml 0.05M phosphate buffer pH 7.4 • 30 ul of linoleic acid dispersion stock • 10 ul of 0.01M antioxidant stock
150 ul of 40 mM […] stock
When testing the efficiency of compounds of the present invention in the presence and absence of Ca^2+, HEPES buffered saline was used instead of the standard phosphate buffer and CaCl2 was used as a source of calcium ions.

[3] = system: NSC-34D motor neuron cell line; experiment: Excitotoxic cell death of motor neuron cell line (MTT reduction); type: cell-based; conditions: exposed for 72 hours
Method: FIG. 3 is a plot showing the effect of (S)-5-fluorowillardiine (“(S)-5-FW”) on survival (MTT reduction) of NSC-34D motor neuron cell line. These cells were cultured at 1×10^4 cells/well for 48 hours in DMEM/F-12 with 1% (v/v) FCS and then exposed to various concentrations of (S)-5-FW for 72 hours. MTT solution (0.5 mg/ml) was added to cultures for 2 hours, cells were solubilised and MTT reduction quantified as a percentage of […]. Statistically significant differences from control (zero (S)-5-FW) were defined using one-way ANOVA (*P<0.05, ***P<0.001).
as §1

[4] = 0.05M phosphate buffer pH 7.4, 37° C., 15 minutes, antioxidant stock 0.01 M, final concentration 33.3 μM
[5] = HBS with calcium (67%), CaCl2 as calcium source, solvent methanol or DMSO (33%)
[6] = HBS without calcium (67%), solvent methanol or DMSO (33%)

| Molecule | Efficiency [2, 4] [%] | Efficiency [2, 5] [%] | Efficiency [2, 6] [%] | also measured |
| --- | --- | --- | --- | --- |
| O=NOO [peroxynitrite] | – | – | – | Cell death (LDH release as marker of cytotoxicity) [1]: not peroxynitrite induced significant cell death |
| O=C1O[C@H]([C@@H](O)CO)C(O)=C1O [Ascorbic Acid] | 74 | – | – | – |
| CCOC(=O)CN(CC(=O)OCC)c1ccccc1OC [(5), N,N-bis(ethoxycarbonylmethyl)o-anisidine] | 47 | – | – | – |
| N[C@@H](Cn1cc(F)c(=O)[nH]c1=O)C(=O)O [(S)-5-FW, (S)-5-fluorowillardiine] | – | – | – | Concentration of maximal cell death effect [3]: 1000 µM; Effect on survival (MTT reduction) ([3]; various concentrations): significant cell death in concentration dependent manner |
| Bis[2-(bis-ethoxycarbonylmethyl)aminophenoxy]ethane [compound (3)] | 20 | – | – | – |
| O=C(O)CN(CC(=O)O)c1ccccc1OCCOc1ccccc1N(CC(=O)O)CC(=O)O [compound (4), bis(o-aminophenoxy)ethane-N,N,N′,N′-tetraacetic acid] | 83 | 93 | 93 | – |
| C[n+]1ccc(-c2cc[n+](C)cc2)cc1 [paraquat] | – | – | – | Cell death (LDH release as marker of cytotoxicity) ([1]; 5×10^3 cells per well, treated overnight, high doses): induced significant cell death; Concentration that induces significant death of cultured fibroblasts ([1]; model A, oxidant stress): 10 µM |
| Vitamin E | 93 | 94 | 90 | – |
| COc1ccccc1N(CC(=O)O)CC(=O)O [(6), N,N-bis(acetic acid)o-anisidine] | 43 | 35 | 46 | – |
